Key:
Type in all cases: functional, Homo sapiens
Details in all cases: Homo sapiens, read-out: Cell Viability; for viability at 10 µM: Concentration 10 uM; for viability at 1 µM: Concentration 1 uM
Colon cancer organoid [1] = experiment: Targeting of F14 CAF-induced therapy resistance in O23 CRC organoid-stroma co-culture. Cell viability is reported without Gefitinib.
Colon cancer organoid [2] = experiment: Targeting of F14 CAF-induced therapy resistance in O14 CRC organoid-stroma co-culture. Cell viability is reported without Gefitinib.
Colon cancer organoid [3] = experiment: Targeting of F14 CAF-induced therapy resistance in O14 CRC organoid-stroma co-culture. Cell viability is reported with Gefitinib.
Colon cancer organoid [4] = experiment: Targeting of F14 CAF-induced therapy resistance in O23 CRC organoid-stroma co-culture. Cell viability is reported with SN-38.
Colon cancer organoid [5] = experiment: Targeting of F14 CAF-induced therapy resistance in O23 CRC organoid-stroma co-culture. Cell viability is reported with Gefitinib.

COc1nc2ccc([C@@](O)(c3ccccc3)C3CCN(C(C)=O)CC3)cc2c(Cl)c1Cc1ccc(-n2cccn2)cc1 [JNJ-54119936]
viability at 10 µM (Colon cancer organoid [1]): 106%
viability at 10 µM (Colon cancer organoid [2]): 146%
viability at 10 µM (Colon cancer organoid [3]): 45.8%
viability at 10 µM (Colon cancer organoid [4]): 62.6%
viability at 10 µM (Colon cancer organoid [5]): 64.3%

Cn1cc(CCn2cnc(-c3cnn(C)c3)c2-c2ccc(C#N)cc2)cn1
viability at 10 µM (Colon cancer organoid [1]): 141%
viability at 10 µM (Colon cancer organoid [2]): 105%
viability at 10 µM (Colon cancer organoid [3]): 71.4%
viability at 10 µM (Colon cancer organoid [4]): 92.5%
viability at 10 µM (Colon cancer organoid [5]): 63.6%

FC(F)(F)c1ccc2c(c1)nc(-c1cccnc1)n2C1CC1 [MSD-CYP11B2-Negative-control]
viability at 10 µM (Colon cancer organoid [1]): 150%
viability at 10 µM (Colon cancer organoid [2]): 65.1%
viability at 10 µM (Colon cancer organoid [3]): 32.7%
viability at 10 µM (Colon cancer organoid [4]): 92.9%
viability at 10 µM (Colon cancer organoid [5]): 69.7%

CC1(C)C(N)=Nc2cc(OCCCCN3Cc4ccc(OCc5cn(CC(=O)N6CCC(CCN7CCCC7)CC6)nn5)cc4C3)c(OCC3CC3)cc21
viability at 10 µM (Colon cancer organoid [1]): 86.3%
viability at 10 µM (Colon cancer organoid [2]): 107%
viability at 10 µM (Colon cancer organoid [3]): 45.4%
viability at 10 µM (Colon cancer organoid [4]): 78.3%
viability at 10 µM (Colon cancer organoid [5]): 44%

CC(C)(O)c1cncc(-c2nc3ccc(F)cc3n2C2CC2)c1 [MSD-CYP11B2]
viability at 10 µM (Colon cancer organoid [1]): 144%
viability at 10 µM (Colon cancer organoid [2]): 107%
viability at 10 µM (Colon cancer organoid [3]): 39%
viability at 10 µM (Colon cancer organoid [4]): 94.9%
viability at 10 µM (Colon cancer organoid [5]): 79.5%

Cc1cc2c(-c3ccco3)cnc(N[C@H]3CCN(C)C[C@@H]3C(=O)NC3CCCCC3)c2[nH]c1=O [GSK791]
viability at 10 µM (Colon cancer organoid [1]): 76%
viability at 10 µM (Colon cancer organoid [2]): 111%
viability at 10 µM (Colon cancer organoid [3]): 26.2%
viability at 10 µM (Colon cancer organoid [4]): 81.3%
viability at 10 µM (Colon cancer organoid [5]): 50%

CN1CCN(C(=O)C(C)(C)c2ccc(C(=O)Nc3cn4cc(-c5ccncc5)ccc4n3)cc2)CC1 [T3-CLK]
viability at 10 µM (Colon cancer organoid [1]): 27.9%
viability at 10 µM (Colon cancer organoid [2]): 38.4%
viability at 10 µM (Colon cancer organoid [3]): 7.96%
viability at 10 µM (Colon cancer organoid [4]): 18.9%
viability at 10 µM (Colon cancer organoid [5]): 12.1%

O=C(NC[C@@H]1[C@H]2CN(C(=O)OCc3cc(C(F)(F)F)cc(C(F)(F)F)c3)C[C@@H]12)c1ccc2[nH]nnc2c1 [BI 2545]
viability at 10 µM (Colon cancer organoid [1]): 142%
viability at 10 µM (Colon cancer organoid [2]): 105%
viability at 10 µM (Colon cancer organoid [3]): 43%
viability at 10 µM (Colon cancer organoid [4]): 105%
viability at 10 µM (Colon cancer organoid [5]): 83.8%

Clc1cccc(-c2nnnn2Cc2cccnc2)c1Cl
viability at 10 µM (Colon cancer organoid [1]): 106%
viability at 10 µM (Colon cancer organoid [2]): 127%
viability at 10 µM (Colon cancer organoid [3]): 60.2%
viability at 10 µM (Colon cancer organoid [4]): 77.1%
viability at 10 µM (Colon cancer organoid [5]): 47.8%

c1ccc(C2CCN(c3cnc4c(N5CCOCC5)nccn34)CC2)cc1
viability at 10 µM (Colon cancer organoid [1]): 207%
viability at 10 µM (Colon cancer organoid [2]): 81.3%
viability at 10 µM (Colon cancer organoid [3]): 78.2%
viability at 10 µM (Colon cancer organoid [4]): 108%
viability at 10 µM (Colon cancer organoid [5]): 136%

Cc1c(Oc2ccc(F)cc2)c(OC(C)C)nn1-c1ccc(C2CC2)cn1 [IPP/CNRS-A019]
viability at 10 µM (Colon cancer organoid [1]): 147%
viability at 10 µM (Colon cancer organoid [2]): 84.4%
viability at 10 µM (Colon cancer organoid [3]): 50.2%
viability at 10 µM (Colon cancer organoid [4]): 75.2%
viability at 10 µM (Colon cancer organoid [5]): 86.4%

CSc1cccnc1N1CCN(Cc2nc3ccccc3[nH]2)CC1 [A-769]
viability at 10 µM (Colon cancer organoid [1]): 111%
viability at 10 µM (Colon cancer organoid [2]): 73.4%
viability at 10 µM (Colon cancer organoid [3]): 36.4%
viability at 10 µM (Colon cancer organoid [4]): 103%
viability at 10 µM (Colon cancer organoid [5]): 59%

CN1CCN(C(=O)C(C)(C)c2ccc(C(=O)Nc3cn4cc(-c5cc(C(C)(C)C)cc(C(C)(C)C)c5)ccc4n3)cc2)CC1 [T3-CLK-N]
viability at 10 µM (Colon cancer organoid [1]): 81.4%
viability at 10 µM (Colon cancer organoid [2]): 112%
viability at 10 µM (Colon cancer organoid [3]): 53.2%
viability at 10 µM (Colon cancer organoid [4]): 63.2%
viability at 10 µM (Colon cancer organoid [5]): 28.2%

Cc1c(N2CCCC2)nc2ccc(Br)cc2c1C(=O)NC[C@H](CCC(=O)O)c1ccccc1Cl [BAY-6672]
viability at 10 µM (Colon cancer organoid [1]): 81.2%
viability at 10 µM (Colon cancer organoid [2]): 138%
viability at 10 µM (Colon cancer organoid [3]): 37.9%
viability at 10 µM (Colon cancer organoid [4]): 58.4%
viability at 10 µM (Colon cancer organoid [5]): 42.2%

O=C(NCCN1CCOCC1)c1ccc2c(c1)C(=O)c1ccc(Nc3ccc(F)c(NC(=O)c4ccccc4)c3)cc1CC2 [FS-694]
viability at 10 µM (Colon cancer organoid [1]): 108%
viability at 10 µM (Colon cancer organoid [2]): 156%
viability at 10 µM (Colon cancer organoid [3]): 28.9%
viability at 10 µM (Colon cancer organoid [4]): 54%
viability at 10 µM (Colon cancer organoid [5]): 40%

CN([C@@H]1CCc2c(CC(=O)O)c3cc(S(C)(=O)=O)ccc3n2C1)S(=O)(=O)c1ccc(F)cc1 [CRTH2-negative-control]
viability at 10 µM (Colon cancer organoid [1]): 76.2%
viability at 10 µM (Colon cancer organoid [2]): 98.2%
viability at 10 µM (Colon cancer organoid [3]): 37%
viability at 10 µM (Colon cancer organoid [4]): 54.8%
viability at 10 µM (Colon cancer organoid [5]): 24.9%

Cc1cc2c(cc1N1C(=O)c3cccc4c(CCCO)ccc(c34)C1=O)n(C)c(=O)n2C
viability at 10 µM (Colon cancer organoid [1]): 150%
viability at 10 µM (Colon cancer organoid [2]): 47.7%
viability at 10 µM (Colon cancer organoid [3]): 43.3%
viability at 10 µM (Colon cancer organoid [4]): 81.8%
viability at 10 µM (Colon cancer organoid [5]): 71.7%

COCCOc1nc(-c2ccc(Cl)nc2)nc2c1CN(C(=O)c1ncn3ccccc13)CC2 [THPP-1]
viability at 1 µM (Colon cancer organoid [1]): 141%
viability at 1 µM (Colon cancer organoid [2]): 100%
viability at 1 µM (Colon cancer organoid [3]): 37.5%
viability at 1 µM (Colon cancer organoid [4]): 58.4%
viability at 1 µM (Colon cancer organoid [5]): 47.7%

C[C@@H](NC(=O)Nc1cc2[nH]ncc2c(CO)n1)c1ccccc1 [ERKi]
viability at 10 µM (Colon cancer organoid [1]): 14.3%
viability at 10 µM (Colon cancer organoid [2]): 49.2%
viability at 10 µM (Colon cancer organoid [3]): 10.3%
viability at 10 µM (Colon cancer organoid [4]): 14.3%
viability at 10 µM (Colon cancer organoid [5]): 4.5%

Cc1cnc(-c2cc(Cl)ccc2F)cc1-n1c(=O)n(CC(N)=O)c2ccccc21 [Al11]
viability at 10 µM (Colon cancer organoid [1]): 120%
viability at 10 µM (Colon cancer organoid [2]): 104%
viability at 10 µM (Colon cancer organoid [3]): 31.3%
viability at 10 µM (Colon cancer organoid [4]): 66.2%
viability at 10 µM (Colon cancer organoid [5]): 94.6%

CC(C)C(=O)Nc1n[nH]c2cc(-c3cccc(NS(=O)(=O)C4CC4)c3)ccc12
viability at 10 µM (Colon cancer organoid [1]): 115%
viability at 10 µM (Colon cancer organoid [2]): 129%
viability at 10 µM (Colon cancer organoid [3]): 57.8%
viability at 10 µM (Colon cancer organoid [4]): 62.1%
viability at 10 µM (Colon cancer organoid [5]): 54.8%

Cc1cc(C)cc([C@H]2c3cc(C)ccc3NC(=O)CN2C(=O)c2ccc(Br)s2)c1
viability at 10 µM (Colon cancer organoid [1]): 84.3%
viability at 10 µM (Colon cancer organoid [2]): 96.4%
viability at 10 µM (Colon cancer organoid [3]): 63.7%
viability at 10 µM (Colon cancer organoid [4]): 86.1%
viability at 10 µM (Colon cancer organoid [5]): 63.4%

CNCCN1CCC(c2cc(CN(C)C(=O)c3cccc(Oc4ccccc4)c3)ccn2)CC1
viability at 10 µM (Colon cancer organoid [1]): 118%
viability at 10 µM (Colon cancer organoid [2]): 80.6%
viability at 10 µM (Colon cancer organoid [3]): 40.3%
viability at 10 µM (Colon cancer organoid [4]): 84.5%
viability at 10 µM (Colon cancer organoid [5]): 71.9%

CCc1ccccc1C(=O)Nc1n[nH]c2c(C)c(F)c(C3C(C#N)=C(C)N(C)C(C)=C3C#N)cc12 [BAY-3827]
viability at 10 µM (Colon cancer organoid [1]): 47.4%
viability at 10 µM (Colon cancer organoid [2]): 101%
viability at 10 µM (Colon cancer organoid [3]): 24.2%
viability at 10 µM (Colon cancer organoid [4]): 14.5%
viability at 10 µM (Colon cancer organoid [5]): 30.6%

CN(C)[C@@H]1CCN(c2cc(-c3ccccc3)nc3ccnn23)C1 [(R)-ZINC-3573]
viability at 10 µM (Colon cancer organoid [1]): 130%
viability at 10 µM (Colon cancer organoid [2]): 68.2%
viability at 10 µM (Colon cancer organoid [3]): 30.9%
viability at 10 µM (Colon cancer organoid [4]): 70.6%
viability at 10 µM (Colon cancer organoid [5]): 61.7%

COc1cc(OC)cc(-c2noc(N3CCN(C)C4(CCN(c5ccccc5)CC4)C3)n2)c1
viability at 10 µM (Colon cancer organoid [1]): 104%
viability at 10 µM (Colon cancer organoid [2]): 114%
viability at 10 µM (Colon cancer organoid [3]): 46.8%
viability at 10 µM (Colon cancer organoid [4]): 81.3%
viability at 10 µM (Colon cancer organoid [5]): 65.9%

CC(=O)Nc1c(C(C)=O)c(=O)n(C)c2nc(-c3ccc(Cl)cc3Cl)c(-c3ccc(Cl)cc3)cc12 [NAPHTHYRIDINONE]
viability at 10 µM (Colon cancer organoid [1]): 109%
viability at 10 µM (Colon cancer organoid [2]): 119%
viability at 10 µM (Colon cancer organoid [3]): 48.1%
viability at 10 µM (Colon cancer organoid [4]): 81.5%
viability at 10 µM (Colon cancer organoid [5]): 58.3%

O=S(=O)(NC1CCC(c2cc(F)ccc2F)(S(=O)(=O)c2ccc(Cl)cc2)CC1)C(F)(F)F (stereo not given) [MRK-560]
viability at 1 µM (Colon cancer organoid [1]): 130%
viability at 1 µM (Colon cancer organoid [2]): 73.7%
viability at 1 µM (Colon cancer organoid [3]): 32.8%
viability at 1 µM (Colon cancer organoid [4]): 64.4%
viability at 1 µM (Colon cancer organoid [5]): 60.6%

CN(C)C(=O)c1ccc(-c2cc(C(=O)N[C@@H]3CCc4ccccc43)no2)cc1O
viability at 10 µM (Colon cancer organoid [1]): 83.1%
viability at 10 µM (Colon cancer organoid [2]): 77%
viability at 10 µM (Colon cancer organoid [3]): 33.6%
viability at 10 µM (Colon cancer organoid [4]): 64.6%
viability at 10 µM (Colon cancer organoid [5]): 61.6%
